Data: PubChem BioAssay (NCI)
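Method: 48-hour compound exposure of cells in 96-well plates, five concentrations, linear interpolation of endpoints. At the GI50, growth is halved. TGI: concentration producing complete growth inhibition.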

Legend:
Experiment in all cases: NCI-60 cell line screen, 48 h
T-47D breast = test system: T-47D breast
SW-620 colon = test system: SW-620 colon
UO-31 renal = test system: UO-31 renal
HL-60(TB) leukemia = test system: HL-60(TB) leukemia
HS 578T breast = test system: HS 578T breast
OVCAR-3 ovarian = test system: OVCAR-3 ovarian
SK-MEL-2 melanoma = test system: SK-MEL-2 melanoma
A549 NSCLC = test system: A549 NSCLC
HOP-62 NSCLC = test system: HOP-62 NSCLC
SR leukemia = test system: SR leukemia
NCI-H460 lung = test system: NCI-H460 lung
IGROV1 ovarian = test system: IGROV1 ovarian
SF-295 CNS = test system: SF-295 CNS
TK-10 renal = test system: TK-10 renal
RPMI-8226 leukemia = test system: RPMI-8226 leukemia
MALME-3M melanoma = test system: MALME-3M melanoma
SNB-75 CNS = test system: SNB-75 CNS
OVCAR-4 ovarian = test system: OVCAR-4 ovarian
MDA-MB-435 = test system: MDA-MB-435
SNB-19 CNS = test system: SNB-19 CNS
EKVX NSCLC = test system: EKVX NSCLC
UACC-62 melanoma = test system: UACC-62 melanoma
SN12C renal = test system: SN12C renal
MDA-MB-231 breast = test system: MDA-MB-231 breast
OVCAR-8 ovarian = test system: OVCAR-8 ovarian
UACC-257 melanoma = test system: UACC-257 melanoma
SK-MEL-28 melanoma = test system: SK-MEL-28 melanoma
COLO 205 colon = test system: COLO 205 colon
SK-OV-3 ovarian = test system: SK-OV-3 ovarian
SF-539 CNS = test system: SF-539 CNS
PC-3 prostate = test system: PC-3 prostate
SF-268 CNS = test system: SF-268 CNS
NCI-H23 lung = test system: NCI-H23 lung
HT29 colon = test system: HT29 colon
HCT-15 colon = test system: HCT-15 colon
NCI-H522 lung = test system: NCI-H522 lung
LOX IMVI melanoma = test system: LOX IMVI melanoma
A498 renal = test system: A498 renal
M14 melanoma = test system: M14 melanoma
MCF7 breast = test system: MCF7 breast
U251 CNS = test system: U251 CNS
CAKI-1 renal = test system: CAKI-1 renal
MOLT-4 leukemia = test system: MOLT-4 leukemia
CCRF-CEM leukemia = test system: CCRF-CEM leukemia
K-562 leukemia = test system: K-562 leukemia
HOP-92 NSCLC = test system: HOP-92 NSCLC
DU-145 prostate = test system: DU-145 prostate
ACHN renal = test system: ACHN renal
SK-MEL-5 melanoma = test system: SK-MEL-5 melanoma
HCT-116 colon = test system: HCT-116 colon
KM12 colon = test system: KM12 colon
HCC-2998 colon = test system: HCC-2998 colon
OVCAR-5 ovarian = test system: OVCAR-5 ovarian
BT-549 breast = test system: BT-549 breast
786-0 renal = test system: 786-0 renal
NCI-H226 lung = test system: NCI-H226 lung
NCI/ADR-RES ovarian = test system: NCI/ADR-RES ovarian
RXF 393 renal = test system: RXF 393 renal

## Cc1ccccc1NC(=O)N/C(N)=N/c1nc(-c2cccc([N+](=O)[O-])c2)cs1
T-47D breast
  GI50: 3.2 µM
  TGI: > 100 µM
SW-620 colon
  GI50: 2.3 µM
  TGI: > 100 µM
UO-31 renal
  GI50: 1.29 µM
  TGI: 3.83 µM
HL-60(TB) leukemia
  GI50: 3.56 µM
  TGI: > 100 µM
HS 578T breast
  GI50: 2.17 µM
  TGI: 7.31 µM
OVCAR-3 ovarian
  GI50: 1.72 µM
  TGI: 4.41 µM
SK-MEL-2 melanoma
  GI50: 3.21 µM
  TGI: 17.3 µM
A549 NSCLC
  GI50: 2.39 µM
  TGI: 6.98 µM
HOP-62 NSCLC
  GI50: 1.92 µM
  TGI: 7.47 µM
SR leukemia
  GI50: 0.594 µM
  TGI: > 100 µM
NCI-H460 lung
  GI50: 3.18 µM
  TGI: 23.1 µM
IGROV1 ovarian
  GI50: 1.71 µM
  TGI: 11.5 µM
SF-295 CNS
  GI50: 1.53 µM
  TGI: 3.62 µM
TK-10 renal
  GI50: 5.33 µM
  TGI: 14.6 µM
RPMI-8226 leukemia
  GI50: 3.09 µM
  TGI: > 100 µM
MALME-3M melanoma
  GI50: 0.943 µM
  TGI: 4.73 µM
SNB-75 CNS
  GI50: 1.28 µM
  TGI: 3.62 µM
OVCAR-4 ovarian
  GI50: 3.53 µM
  TGI: > 100 µM
MDA-MB-435
  GI50: 0.505 µM
  TGI: 4.51 µM
SNB-19 CNS
  GI50: 3.29 µM
  TGI: 15.8 µM
EKVX NSCLC
  GI50: 1.94 µM
  TGI: > 100 µM
UACC-62 melanoma
  GI50: 2.14 µM
  TGI: 12.8 µM
SN12C renal
  GI50: 3.37 µM
  TGI: 30.5 µM
MDA-MB-231 breast
  GI50: 1.6 µM
  TGI: 4.03 µM
OVCAR-8 ovarian
  GI50: 2.88 µM
  TGI: 15.2 µM
UACC-257 melanoma
  GI50: 4.85 µM
  TGI: > 100 µM
SK-MEL-28 melanoma
  GI50: 2.55 µM
  TGI: > 100 µM
COLO 205 colon
  GI50: 3.89 µM
  TGI: > 100 µM
SK-OV-3 ovarian
  GI50: 2.55 µM
  TGI: 17.8 µM
SF-539 CNS
  GI50: 1.65 µM
  TGI: 3.21 µM
PC-3 prostate
  GI50: 2.66 µM
  TGI: > 100 µM
SF-268 CNS
  GI50: 2.67 µM
  TGI: 8.88 µM
NCI-H23 lung
  GI50: 1.94 µM
  TGI: 6.49 µM
HT29 colon
  GI50: 2.78 µM
  TGI: 64 µM
HCT-15 colon
  GI50: 1.56 µM
  TGI: 34.6 µM
NCI-H522 lung
  GI50: 1.79 µM
  TGI: > 100 µM
LOX IMVI melanoma
  GI50: 1.79 µM
  TGI: 5.17 µM
A498 renal
  GI50: 2.39 µM
  TGI: 7.69 µM
M14 melanoma
  GI50: 2.15 µM
  TGI: 19.6 µM
MCF7 breast
  GI50: 1.47 µM
  TGI: > 100 µM
U251 CNS
  GI50: 2.76 µM
  TGI: 10.5 µM
CAKI-1 renal
  GI50: 1.16 µM
  TGI: 3.16 µM
MOLT-4 leukemia
  GI50: 3.39 µM
  TGI: > 100 µM
CCRF-CEM leukemia
  GI50: 3 µM
  TGI: > 100 µM
K-562 leukemia
  GI50: 0.555 µM
  TGI: > 100 µM
HOP-92 NSCLC
  GI50: 2.15 µM
  TGI: 6.6 µM
DU-145 prostate
  GI50: 3.35 µM
  TGI: 65.1 µM
ACHN renal
  GI50: 2.52 µM
  TGI: 8.46 µM
SK-MEL-5 melanoma
  GI50: 1.88 µM
  TGI: 5.15 µM
HCT-116 colon
  GI50: 1.58 µM
  TGI: 3.18 µM
KM12 colon
  GI50: 2.49 µM
  TGI: > 100 µM
HCC-2998 colon
  GI50: 3.16 µM
  TGI: > 100 µM
OVCAR-5 ovarian
  GI50: 4.34 µM
  TGI: > 100 µM
BT-549 breast
  GI50: 2.16 µM
  TGI: 5.37 µM
786-0 renal
  GI50: 2.21 µM
  TGI: 4.55 µM
NCI-H226 lung
  GI50: 2.17 µM
  TGI: 7.02 µM
NCI/ADR-RES ovarian
  GI50: 1.82 µM
  TGI: 7.22 µM
RXF 393 renal
  GI50: 1.78 µM
  TGI: 4.33 µM

## CC(C)c1ccc(C(=O)Nc2nc3ccc(O)cc3s2)cc1
T-47D breast
  GI50: 0.715 µM
  TGI: > 100 µM
SW-620 colon
  GI50: 0.552 µM
  TGI: > 100 µM
UO-31 renal
  GI50: 0.35 µM
  TGI: > 100 µM
HL-60(TB) leukemia
  GI50: 0.481 µM
  TGI: 20.2 µM
HS 578T breast
  GI50: 11.4 µM
  TGI: > 100 µM
OVCAR-3 ovarian
  GI50: 1.36 µM
  TGI: 51.4 µM
SK-MEL-2 melanoma
  GI50: 18 µM
  TGI: > 100 µM
A549 NSCLC
  GI50: 2.33 µM
  TGI: > 100 µM
HOP-62 NSCLC
  GI50: 1.74 µM
  TGI: > 100 µM
SR leukemia
  GI50: 0.715 µM
  TGI: 68.7 µM
NCI-H460 lung
  GI50: 0.47 µM
  TGI: 10.9 µM
IGROV1 ovarian
  GI50: 0.361 µM
  TGI: > 100 µM
TK-10 renal
  GI50: 8.98 µM
  TGI: > 100 µM
RPMI-8226 leukemia
  GI50: 2.74 µM
  TGI: > 100 µM
MALME-3M melanoma
  GI50: 0.684 µM
  TGI: > 100 µM
SNB-75 CNS
  GI50: 9.18 µM
  TGI: 73.2 µM
OVCAR-4 ovarian
  GI50: 0.873 µM
  TGI: 80.2 µM
MDA-MB-435
  GI50: 0.443 µM
  TGI: > 100 µM
SNB-19 CNS
  GI50: 8.27 µM
  TGI: > 100 µM
EKVX NSCLC
  GI50: 2.34 µM
  TGI: > 100 µM
UACC-62 melanoma
  GI50: 0.124 µM
  TGI: > 100 µM
SN12C renal
  GI50: 2.18 µM
  TGI: > 100 µM
MDA-MB-231 breast
  GI50: 1.97 µM
  TGI: > 100 µM
OVCAR-8 ovarian
  GI50: 1.48 µM
  TGI: > 100 µM
UACC-257 melanoma
  GI50: 1.51 µM
  TGI: > 100 µM
SK-MEL-28 melanoma
  GI50: 0.628 µM
  TGI: > 100 µM
COLO 205 colon
  GI50: 3.58 µM
  TGI: > 100 µM
SF-539 CNS
  GI50: 1.22 µM
  TGI: 11.6 µM
PC-3 prostate
  GI50: 3.23 µM
  TGI: > 100 µM
SF-268 CNS
  GI50: 4.06 µM
  TGI: > 100 µM
NCI-H23 lung
  GI50: 3.52 µM
  TGI: > 100 µM
HT29 colon
  GI50: 3.38 µM
  TGI: 17.8 µM
HCT-15 colon
  GI50: 0.274 µM
  TGI: > 100 µM
NCI-H522 lung
  GI50: 0.693 µM
  TGI: > 100 µM
LOX IMVI melanoma
  GI50: 0.2 µM
  TGI: 29.5 µM
A498 renal
  GI50: 2.2 µM
  TGI: 9.91 µM
M14 melanoma
  GI50: 0.167 µM
  TGI: 46.5 µM
MCF7 breast
  GI50: 0.442 µM
  TGI: 48.2 µM
U251 CNS
  GI50: 9.32 µM
  TGI: > 100 µM
CAKI-1 renal
  GI50: 0.845 µM
  TGI: > 100 µM
MOLT-4 leukemia
  GI50: 0.246 µM
  TGI: > 100 µM
CCRF-CEM leukemia
  GI50: 0.318 µM
  TGI: > 100 µM
K-562 leukemia
  GI50: 0.298 µM
  TGI: 28.6 µM
HOP-92 NSCLC
  GI50: 5.18 µM
  TGI: 55 µM
DU-145 prostate
  GI50: 1.7 µM
  TGI: > 100 µM
ACHN renal
  GI50: 0.304 µM
  TGI: > 100 µM
SK-MEL-5 melanoma
  GI50: 0.535 µM
  TGI: > 100 µM
HCT-116 colon
  GI50: 0.468 µM
  TGI: > 100 µM
KM12 colon
  GI50: 0.262 µM
  TGI: > 100 µM
HCC-2998 colon
  GI50: 0.371 µM
  TGI: 1.81 µM
OVCAR-5 ovarian
  GI50: 7.68 µM
  TGI: > 100 µM
BT-549 breast
  GI50: 2.8 µM
  TGI: > 100 µM
786-0 renal
  GI50: 0.866 µM
  TGI: 6.09 µM
NCI-H226 lung
  GI50: 5.16 µM
  TGI: 50.4 µM
NCI/ADR-RES ovarian
  GI50: 0.948 µM
  TGI: > 100 µM
RXF 393 renal
  GI50: 2.6 µM
  TGI: 13.9 µM
